Results on 9 compounds are retold here after PMC3037034 (ACS Medicinal Chemistry Letters, 2010).

One assay deals with T1, human COX-2 (Homo sapiens, UniProt P35354).
T1 sequence (P35354 18-604): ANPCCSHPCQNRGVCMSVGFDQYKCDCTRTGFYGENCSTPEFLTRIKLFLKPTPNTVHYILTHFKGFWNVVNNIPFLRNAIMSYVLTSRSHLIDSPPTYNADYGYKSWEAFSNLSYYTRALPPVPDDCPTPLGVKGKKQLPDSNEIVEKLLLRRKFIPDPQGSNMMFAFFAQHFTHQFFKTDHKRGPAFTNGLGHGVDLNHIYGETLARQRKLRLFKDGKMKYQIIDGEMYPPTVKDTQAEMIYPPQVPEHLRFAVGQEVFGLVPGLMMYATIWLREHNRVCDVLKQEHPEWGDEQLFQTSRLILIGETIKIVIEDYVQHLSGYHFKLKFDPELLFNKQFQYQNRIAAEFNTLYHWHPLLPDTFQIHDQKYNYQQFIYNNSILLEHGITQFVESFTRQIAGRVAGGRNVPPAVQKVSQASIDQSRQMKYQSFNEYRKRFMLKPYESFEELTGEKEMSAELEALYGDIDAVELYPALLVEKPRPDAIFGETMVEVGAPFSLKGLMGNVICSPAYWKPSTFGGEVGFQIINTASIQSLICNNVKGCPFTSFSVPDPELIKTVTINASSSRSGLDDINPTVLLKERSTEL
Kind of assay: purified COX-2 inhibition, TLC assay. The assay is classed as biochemical. Particulars: for COX-2 inhibitory activity (in words): purified COX-2.

Another assay concerns the target T2, ovine COX-1 (Ovis aries, UniProt P05979).
T2 sequence (P05979 25-600): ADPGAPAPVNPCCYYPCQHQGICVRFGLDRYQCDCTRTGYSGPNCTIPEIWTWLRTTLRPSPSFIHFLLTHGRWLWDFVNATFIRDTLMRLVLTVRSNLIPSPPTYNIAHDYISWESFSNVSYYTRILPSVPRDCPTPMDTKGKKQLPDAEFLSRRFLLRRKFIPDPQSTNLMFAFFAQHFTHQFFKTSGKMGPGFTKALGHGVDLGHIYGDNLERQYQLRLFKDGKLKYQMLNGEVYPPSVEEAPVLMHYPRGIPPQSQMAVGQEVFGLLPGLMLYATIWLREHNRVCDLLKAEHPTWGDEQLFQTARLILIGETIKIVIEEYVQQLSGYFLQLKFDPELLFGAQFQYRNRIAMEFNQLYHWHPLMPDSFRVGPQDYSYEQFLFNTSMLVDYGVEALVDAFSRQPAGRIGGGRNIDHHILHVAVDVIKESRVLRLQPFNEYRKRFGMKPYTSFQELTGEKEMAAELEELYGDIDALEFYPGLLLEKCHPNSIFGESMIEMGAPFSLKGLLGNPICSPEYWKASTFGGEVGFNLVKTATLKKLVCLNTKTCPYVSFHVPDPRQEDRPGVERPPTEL
Nature of the assay: purified COX-1 inhibition, TLC assay. The assay is classed as biochemical. The following applies: at concentrations up to 5 μM.

As for `COC(=O)c1cc(-c2cccc(I)c2)n(-c2ccc(S(N)(=O)=O)cc2)n1` [compound 2], the concentration for half-maximal inhibition (IC50) against human COX-2 is 3800 nM.
Still for that read-out and setting: with `COC(=O)c1cc(-c2ccc(I)cc2)n(-c2ccc(S(N)(=O)=O)cc2)n1` [compound 3] the figure was 560 nM.
`CCOC(=O)c1cc(-c2ccc(I)cc2)n(-c2ccc(S(N)(=O)=O)cc2)n1` [compound 4]: the IC50 on human COX-2 is 260 nM. This IC50 lies about 2.2-fold lower than the previous one.
`NS(=O)(=O)c1ccc(-n2nc(CCC(=O)O)cc2-c2cccc(I)c2)cc1` [compound 5]: on human COX-2, the IC50 was over 4000 nM and the “COX-2 inhibitory activity (in words)” value was “inactive”.
For the compound `NS(=O)(=O)c1ccc(-n2nc(CCC(=O)O)cc2-c2ccc(I)cc2)cc1` [compound 6], at human COX-2, the half-maximal inhibitory concentration (IC50) is over 4000 nM and the “COX-2 inhibitory activity (in words)” value was “inactive”.
At human COX-2, `CS(=O)(=O)c1ccc(-n2nc(C(F)(F)F)cc2-c2cccc(I)c2)cc1` [compound 7] yielded an IC50 of 320 nM.
On to `CS(=O)(=O)c1ccc(-n2nc(C(F)(F)F)cc2-c2ccc(I)cc2)cc1` [compound 8, 5-(4-iodophenyl)-1-{4-(methylsulfonyl)phenyl}-3-(trifluoromethyl)-1H-pyrazole], for which, at human COX-2, the IC50 is 50 nM. For the same compound, at ovine COX-1, the “inhibition of COX-1 (in words)” value was “without inhibition”.
In turn, `COC(=O)c1cc(-c2cccc(I)c2)n(-c2ccc(S(C)(=O)=O)cc2)n1` [compound 9] registered an IC50 against human COX-2 of over 4000 nM.
On the same count and under the same terms, with `COC(=O)c1cc(-c2ccc(I)cc2)n(-c2ccc(S(C)(=O)=O)cc2)n1` [compound 10] the figure was 3000 nM.

The term IC50 denotes the point on the concentration scale where inhibition reaches its midpoint. A higher IC50 goes with weaker potency.
